Measurements from patent US20190365784A1, “USE OF BRASSINOSTEROID ANALOGS FOR THE TREATMENT OF DERMAL DISORDERS BY SELECTIVELY MODULATING LIVER X RECEPTORS (LXR) AND DERMAL DISEASE TREATMENT BY BRASSINOSTEROID ANALOGS ACTING AS SELECTIVE LIVER X RECEPTOR (LXR) MODULATORS” (CONSEJO NACIONAL DE INVESTIGACIONES CIENTÍFICAS Y TÉCNICAS …, priority 2015, published 2019).
Marks after values point to notes of the source that are not given here.

What was measured:
granuloma formation = assay: Granuloma formation in a mouse model of subchronic inflammation; type: in vivo; settings: mice; 10 mg/kg body weight; previously showed, data not shown
[1] = test system: imiquimod-induced skin lesions; assay: Imiquimod-induced psoriasis model in mice: clinical signs and dorsal skin histopathology; type: in vivo; design: key to Hyperkeratosis, protective effect / Epidermal serocellular crust, protective effect / Acanthosis, protective effect / Dermal inflammatory infiltrates, protective effect: the (+) sign represents the presence of a protective effect; a (−) sign represents the absence of protective effect; settings: for Acanthosis (0-4), group mean score of dorsal skin / Basliar papillae (0-4), group mean score of dorsal skin / Dermal inflammatory infiltrates (0-4), group mean score of dorsal skin / Dilated tortuous capillaries (0-4), group mean score of dorsal skin / Epidermal micro-abscesses (0-4), group mean score of dorsal skin / Epidermal serocellular rust (0-4), group mean score of dorsal skin / Hyperkeratosis (0-4), group mean score of dorsal skin / Mean Global Score, dorsal skin / Parakeratosis (0-4), group mean score of dorsal skin: psoriatic mice; for Acanthosis (0-4), group mean score of dorsal skin / Basliar papillae (0-4), group mean score of dorsal skin / Dermal inflammatory infiltrates (0-4), group mean score of dorsal skin / Dilated tortuous capillaries (0-4), group mean score of dorsal skin / Epidermal micro-abscesses (0-4), group mean score of dorsal skin / Epidermal serocellular rust (0-4), group mean score of dorsal skin / Hyperkeratosis (0-4), group mean score of dorsal skin / Mean Global Score, dorsal skin / Parakeratosis (0-4), group mean score of dorsal skin / severity of microscopic alterations of back skin (histopathology): QD 9 days
Excerpt: To test whether Compound I might ameliorate the signs of psoriasis, we topically administered Compound I to imiquimod-induced skin lesions in mice. The imiquimod mouse model of psoriasis-like skin inflammation is characterized by lesions that show augmented epidermal cell proliferation, abnormal keratinocyte differentiation, neutrophil accumulation in epidermal microabcesses, and neoangiogenesis.
For this study, thirty two 8-week old female Balbc/J mice were housed […] in positively ventilated polysulfonate cages with HEPA filtered air at a density of 4 mice per cage. The animal room was lighted entirely with artificial fluorescent lighting, with a controlled 12 h light/dark cycle (6 am to 6 pm light). The normal temperature and relative humidity ranges in the animal rooms were 22±4° C. and 50±15%, respectively. The animal rooms were set to have a minimum of 15 air exchanges per hour. Filtered tap water, acidified to a pH of 2.5 to 3.0, and standard rodent chow were provided ad libitum. After 1 week of acclimation mice were randomized into 4 groups (n=8/each) as shown below (Table 1).
1. IMQ induction: On day 0 all grouped mice received a topical dose of 62.5 mg of IMQ cream (5%) on the shaved back for 6 consecutive days. (Day 0 to Day 5)
3. Mice were scored for clinical parameters of disease based on degree of erythema, scaling and thickening independently on a scale of 0-4. 0=none; 1=slight; 2=moderate; 3=moderate to severe: 4=severe. These observations were recorded on day 0, 2, 4, 6, and 8. On the same days, back skin thickness was measured with calipers.
5. Mice were sacrificed on day 10 by CO2 asphyxiation.
6. A part of the back skin was harvested and fixed for histology. Slides were processed, stained with H&E for histology assessment.
Dorsal skin sections were evaluated histopathologically for evidence of key features of psoriasis, such as parakeratosis, hyperkeratosis (thickening of the stratum corneum), acanthosis (diffuse thickening of the stratum spinosum of the skin), epidermal serocellular crusts, epidermal microabscesses, basilar papillae, dermal inflammatory infiltrates and dilated tortuous capillaries (Table 2. Histopathological scoring system and definition used in the Imiquimod psoriasis model).

[2] = test system: fatty acid synthase (FAS); assay: FAS expression in HL-60 cells (real time PCR); type: cell-based, human; settings: 10 uM, 6 h
Experimental: To investigate the effects of Compounds I and II on the expression of three genes involved in lipid metabolism [fatty acid synthase (FAS); and two ATP-dependent cholesterol and phospholipid transporters, such as ABCA1 and ABCG1], human promyelocytic leukemia cells (HL-60) that endogenously express LXR-alpha and LXR-beta were incubated in the presence of either Comp I or Comp II (10 uM), or GW3965 (1 uM) for 6 h. mRNA levels for FAS, ABCA1 and ABCG1 were determined by real time PCR and results were normalized to GAPDH expression. HL-60 (10^6 cells/well) were cultured in RPMI medium supplemented with 5% (v/v) fetal bovine serum, penicillin (100 IU/mL), streptomycin (100 ug/mL) y cyprofloxacin (0.4 ug/mL). […] To obtain RNA, at the end of the incubation the cells were collected by centrifugation at 1,000 rpm for 2 min, washed with phosphate buffered saline, and lysed in 300 ul TRIZOL (Invitrogen). RNA samples were suspended in […] of RNAse free water, and their concentration determined (NanoDrop spectrophotometer). […] To obtain cDNA, 1 ug of total RNA was denatured by incubating for 5 min at 70° C., before the addition of a mixture containing 0.5 ug oligo-dT primers and 25 ng/ml of random primers (Invitrogen), 1.0 mM dNTPs (Invitrogen), and 200 U M-MLV reverse transcriptase (Promega); after this the mixture was retrotranscribed at 37° C. for 60 min, followed by an incubation at 95° C. for 5 min to inactivate the enzyme. For the real time PCR amplification (Stratagene Thermal Cycler), cDNA samples were diluted 1/5 to 1/10 depending on the target amplification product. Calibration curves were obtained by use of eight successive 1:2 sample dilutions. Amplifications were carried out in a 25 ul final volume (5 ul cDNA sample plus 20 ul of reaction mixture) in the presence of either 3, 4 or 5 mM MgCl2 (depending on the amplified sequence), 0.25 mM dNTPs (Invitrogen), 1.25 U Taq polymerase (Invitrogen), 1 μM of the specific primers according to the target amplification sequence, and 0.025 μl SYBR Green (Roche). […]

TNF-alpha = TNF-alpha expression in UV-irradiated HaCaT cells (real time PCR); type: cell-based, human; settings: 10 uM, 24 h after UV (254 nm, 15 J/m^2), normalized to GAPDH
Experimental: HaCaT cells—a human immortalized keratinocyte cell line—were exposed to 15 J/m^2 UVB (254 nm) irradiation. Twenty four hours after irradiation, the cells were harvested and RNA isolated to assess the expression of LXR-alpha, LXR-beta, ABCA1, TNF-alpha, IL-6, and IL-8 genes. HaCaT cells were cultured in DMEM supplemented with 10% (v/v) fetal bovine serum, penicillin (100 U/mL), streptomycin ([…]) and glutamine (2 mM). […] The expressions of ABCA1, TNF-alpha, IL-6, IL-8, LXR-alpha, and LXR-beta were normalized according to glyceraldehyde-3-phosphate dehydrogenase (GAPDH) expression. The results of three independent assays, carried out in duplicate for each condition, are reported.

LXR-alpha = LXR-alpha expression in HepG2 cells (real time PCR); type: cell-based, human; settings: 10 uM, 6 h
Experimental: The cells were incubated for 6 h in the presence of either Compound I (10 uM), or Compound II (10 uM), or the commercial LXR agonist GW3965 (1 uM), or Vehicle [DMSO, 0.1% (v/v)]). To obtain RNA, at the end of the incubation the cells were collected by centrifugation at 1,000 rpm for 2 min, washed with phosphate buffered saline, and lysed in 300 ul TRIZOL (Invitrogen). RNA samples were suspended in ul of RNAse free water, and their concentration determined (NanoDrop spectrophotometer). The ratio of the absorbance at 260 and 280 nm was used to assess RNA purity of an RNA preparation, with a value of 1.8-2.0 indicating pure RNA. To obtain cDNA, 1 ug of total RNA was denatured by incubating for 5 min at 70° C., before the addition of a mixture containing 0.5 ug oligo-dT primers and 25 ng/ml of random primers (Invitrogen), 1.0 mM dNTPs (Invitrogen), and 200 U M-MLV reverse transcriptase (Promega); after this the mixture was retrotranscribed at 37° C. for 60 min, followed by an incubation at 95° C. for 5 min to inactivate the enzyme. For the real time PCR amplification (Stratagene Thermal Cycler), cDNA samples were diluted 1/5 to 1/10 depending on the target amplification product. Calibration curves were obtained by use of eight successive 1:2 sample dilutions. […]

[3] = 0.1% (w/v) Compound I vs 0.1% (w/v) Clobetasol as printed
[4] = topical 0.10%, summary of Table 3

SMILES: CC[C@@H](C(C)C)[C@H](O)[C@@H](O)[C@@H](C)[C@H]1CC[C@H]2[C@@H]3CCC4=CC(=O)CC[C@]4(C)[C@H]3CC[C@]12C [Compound I, (22S,23S)-22,23-dihydroxystigmast-4-en-3-one]
- granuloma formation (granuloma formation): reduces granuloma formation
- epidermal sero-cellular crust reduced relative to Clobetasol-treated mice [1, 3]: 50%
- hyperkeratosis reduced relative to Clobetasol-treated mice [1, 3]: 50%
- global response score of dorsal skin, lower vs. vehicle-treated animals ([1]; Compound I 0.1% topical, 9 days): ~26%
- back skin thickening (calipers) ([1]; after 9 days topical, Compound I 0.05% and 0.1% (w/v), clobetasol 0.05% cream): None of the assayed Compound I's doses prevented back skin thickening
- erythema reduction relative to vehicle-treated mice ([1]; day 8, both Compound I doses 0.05% and 0.1% (w/v), topical): 50%
- skin erythema (clinical score 0-4, in words) ([1]; day 8, topical QD 9 days, both Compound I doses 0.05% and 0.1% (w/v), clobetasol 0.05% cream): slight
- scaling (clinical score 0-4, in words) ([1]; day 8, topical QD 9 days, both Compound I doses, clobetasol 0.05% cream): no improvement
- Acanthosis (0-4), group mean score of dorsal skin ([1]; topical 0.05%): 2.4
- Basliar papillae (0-4), group mean score of dorsal skin ([1]; topical 0.05%): 0.0
- Dermal inflammatory infiltrates (0-4), group mean score of dorsal skin ([1]; topical 0.05%): 2.0
- Dilated tortuous capillaries (0-4), group mean score of dorsal skin ([1]; topical 0.05%): 0.0
- Epidermal micro-abscesses (0-4), group mean score of dorsal skin ([1]; topical 0.05%): 0.0
- Epidermal serocellular rust (0-4), group mean score of dorsal skin ([1]; topical 0.05%): 0.4
- Hyperkeratosis (0-4), group mean score of dorsal skin ([1]; topical 0.05%): 1.3*
- Mean Global Score, dorsal skin ([1]; topical 0.05%): 6.4
- Parakeratosis (0-4), group mean score of dorsal skin ([1]; topical 0.05%): 0.4
- Acanthosis (0-4), group mean score of dorsal skin ([1]; topical 0.10%): 2.1
- Basliar papillae (0-4), group mean score of dorsal skin ([1]; topical 0.10%): 0.0
- Dermal inflammatory infiltrates (0-4), group mean score of dorsal skin ([1]; topical 0.10%): 1.5
- Dilated tortuous capillaries (0-4), group mean score of dorsal skin ([1]; topical 0.10%): 0.0
- Epidermal micro-abscesses (0-4), group mean score of dorsal skin ([1]; topical 0.10%): 0.0
- Epidermal serocellular rust (0-4), group mean score of dorsal skin ([1]; topical 0.10%): 0.3†
- Hyperkeratosis (0-4), group mean score of dorsal skin ([1]; topical 0.10%): 0.9**
- Mean Global Score, dorsal skin ([1]; topical 0.10%): 4.9
- Parakeratosis (0-4), group mean score of dorsal skin ([1]; topical 0.10%): 0.0
- severity of microscopic alterations of back skin (histopathology) ([1]; topical 0.05%): slightly lower severity
- severity of microscopic alterations of back skin (histopathology) ([1]; topical 0.10% (w/v)): lower than in samples from vehicle-treated psoriatic controls and 0.05% (w/v) Compound I-treated mice
- Acanthosis, protective effect [1, 4]: −
- Dermal inflammatory infiltrates, protective effect [1, 4]: −
- Epidermal serocellular crust, protective effect [1, 4]: +
- Hyperkeratosis, protective effect [1, 4]: +
- FAS mRNA lower than in vehicle-treated cells [2]: ~40%
- TNF-alpha expression versus DMSO-treated cells (TNF-alpha): significantly lower
- induction of LXR-alpha expression compared with DMSO treated HepG2 (LXR-alpha): 1.5 times

SMILES: CC[C@@H](C(C)C)[C@H](O)[C@@H](O)[C@@H](C)[C@H]1CC[C@H]2[C@@H]3CCC4=CC(=O)C=C[C@]4(C)[C@H]3CC[C@]12C [Compound II, (22S,23S)-22,23-dihydroxystigmasta-1,4-dien-3-one]
- FAS mRNA lower than in vehicle-treated cells [2]: ~40%
- TNF-alpha expression versus DMSO-treated cells (TNF-alpha): significantly lower
